Measured values from US20230159445A1, “STAT INHIBITORY COMPOUNDS AND COMPOSITIONS” (JANPIX LIMITED, priority 2020, published 2023).

Tests used:
MV4-11 cells = assay: MV4-11 Cell Cytotoxicity Assay (CellTiter-Blue, 72 h); assay type: cell-based, human; settings: Homo sapiens, MV4-11; MV-4-11 cells
Method in brief: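 Cells seeded 24 h before treatment, then exposed 72 h at 37° C, 5% CO2 to inhibitors in triplicate, top concentration 50 μM with 1:2 serial dilutions (0.5% DMSO vehicle). Viability read by CellTiter-Blue fluorescence at 560/590 nm after 1 h.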

[1] = test system: normal human fibroblast (NHF) cells; assay: NHF Cell Cytotoxicity Assay (CellTiter-Blue, 72 h), off-target effects; assay type: cell-based; settings: Homo sapiens, Fibroblast; pooled NHF cells
Description: In some embodiments, the off-target effects of the compounds are evaluated in healthy human cells, such as in a normal human fibroblast (NHF) cell cytotoxicity assay.
Cell viability was examined following treatment at various concentrations of inhibitor (0.097656-50 μM) using a cell Titer-Blue cell viability assay. 1×10^4 normal human fibroblast cells per well were plated in 96-well assay plates in culture medium. All cells are grown in DMEM, IMDM and RPMI-1640 were supplemented with 10% FBS. After 24 hours, test compounds and vehicle controls are added to appropriate wells so the final volume was 100 μl in each well. The cells are cultured for the desired test exposure period (72 hours) at 37° C. and 5% CO2. The assay plates are removed from 37° C. incubator and 20 μL/well of CellTiter-Blue® Reagent is added. The plates are incubated using standard cell culture conditions for 1-4 hours and the plates are shaken for 10 seconds and record fluorescence at 560/590nm. For each sample well, value is normalized between the DMSO control and the highest concentration in case of plateau, and converted into a percentage. In the absence of plateau, minimum lecture is obtained from a different sample within the same experiment. For each concentration, the four replicates are averaged and standard deviation calculated. Data is fitted to a log(inhibitor) vs response curve with variable slope model using Microsoft Excel, obtaining IC50 and Hill slope variables.
A person skilled in the art would appreciate that a higher IC50 value in this NHF assay can indicate lower off-target effects.

glutathione (GSH) = assay: Reactivity Profiling with Glutathione (GSH), half-life by HPLC; settings: 5 mM glutathione (GSH) in IMDM with 10% FBS

Row | Structure (SMILES) | IC50 (MV4-11 cells) [nM] | IC50 [1] [nM] | half-life at 25 μM (glutathione (GSH)) [h]
1 | COc1cc(C(=O)O)ccc1N(Cc1cc(C2CC2)cc(C(C)(C)C)c1)C(=O)CN(Cc1ccc(Cl)cc1)S(=O)(=O)c1c(F)c(F)c(F)c(F)c1F [Compound 1016, 4-(N-(3-(tert-butyl)-5-cyclopropylbenzyl)-2-(N-(4-chlorobenzyl)-(2,3,4,5,6-pentafluorophenyl)sulfon-amido)acetamido)-3-methoxybenzoic acid] | 316 to 1000 | 20000 to 30000 | 4.12 to 9.23
2 | CN(C)c1cc(C(=O)O)ccc1N(Cc1cc(C2CC2)cc(C(C)(C)C)c1)C(=O)CN(Cc1ccc(Cl)cc1)S(=O)(=O)c1c(F)c(F)c(F)c(F)c1F [Compound 1041, 4-(N-(3-(tert-butyl)-5-cyclopropylbenzyl)-2-(N-(4-chlorobenzyl)-(2,3,4,5,6-pentafluorophenyl)sulfon-amido)acetamido)-3-(dimethylamino)benzoic acid] | 316 to 1000 | 20000 to 30000 | 9.23 to 1670
3 | COc1cc(C(=O)O)ccc1N(Cc1cc(C2CC2)cc(C(C)(C)C)c1)C(=O)CN(Cc1ccccc1F)S(=O)(=O)c1c(F)c(F)c(F)c(F)c1F [Compound 1061, 4-(N-(3-(tert-butyl)-5-cyclopropylbenzyl)-2-(N-(2-fluorobenzyl)-(2,3,4,5,6-pentafluoro-phenyl)sulfonamido)acetamido)-3-methoxybenzoic acid] | 0.01 to 316 | 10000 to 20000 | 2.37 to 4.12
4 | CC(C)(C)c1cc(CN(C(=O)CN(Cc2ccccc2F)S(=O)(=O)c2c(F)c(F)c(F)c(F)c2F)c2ccc(C(=O)O)cc2OC2CC2)cc(C2CC2)c1 [Compound 1062, 4-(N-(3-(tert-butyl)-5-cyclopropylbenzyl)-2-(N-(2-fluorobenzyl)-(2,3,4,5,6-pentafluoro-phenyl)sulfonamido)acetamido)-3-cyclopropoxybenzoic acid] | 0.01 to 316 | 10000 to 20000 | 9.23 to 1670
5 | COc1cc(C(=O)O)ccc1N(Cc1cc(C2CC2)cc(C(C)(C)C)c1)C(=O)CN(Cc1c(F)c(F)c(F)c(F)c1F)S(=O)(=O)c1c(F)c(F)c(F)c(F)c1F [Compound 1066, 4-(N-(3-(tert-butyl)-5-cyclopropylbenzyl)-2-(N-((perfluorophenyl)methyl)-(2,3,4,5,6-pentafluoro-phenyl)sulfonamido)acetamido)-3-methoxybenzoic acid] | 0.01 to 316 | 1 to 10000 | 4.12 to 9.23
6 | COc1cc(C(=O)O)ccc1N(Cc1cc(C2CC2)cc(C(C)(C)C)c1)C(=O)CN(Cc1ccccc1C#N)S(=O)(=O)c1c(F)c(F)c(F)c(F)c1F [Compound 1075, 4-(N-(3-(tert-butyl)-5-cyclopropylbenzyl)-2-(N-(2-cyanobenzyl)-(2,3,4,5,6-pentafluorophenyl)sulfon-amido)acetamido)-3-methoxybenzoic acid] | 0.01 to 316 | 10000 to 20000 | 0.00167 to 2.37
7 | COc1cc(C(=O)O)ccc1N(Cc1cc(C2CC2)cc(C(C)(C)C)c1)C(=O)CN(Cc1ccncc1F)S(=O)(=O)c1c(F)c(F)c(F)c(F)c1F [Compound 1078, 4-(N-(3-(tert-butyl)-5-cyclopropylbenzyl)-2-(N-((3-fluoropyridin-4-yl)methyl)-(2,3,4,5,6-pentafluoro-phenyl)sulfonamido)acetamido)-3-methoxybenzoic acid] | 316 to 1000 | 1 to 10000 | 0.00167 to 2.37
8 | COc1cc(C(=O)O)ccc1N(Cc1cc(C2CC2)cc(C(C)(C)C)c1)C(=O)CN(Cc1c(F)cc(F)cc1F)S(=O)(=O)c1c(F)c(F)c(F)c(F)c1F [Compound 1081] | 0.01 to 316 | 1 to 10000 | 4.12 to 9.23
9 | COc1cc(C(=O)O)ccc1N(Cc1cc(C2CC2)cc(C(C)(C)C)c1)C(=O)CN(Cc1ccccc1C(F)(F)F)S(=O)(=O)c1c(F)c(F)c(F)c(F)c1F [Compound 1087, 4-(N-(3-(tert-butyl)-5-cyclopropylbenzyl)-2-(N-(2-(trifluoromethyl)benzyl)-(2,3,4,5,6-pentafluoro-phenyl)sulfonamido)acetamido)-3-methoxybenzoic acid] | 0.01 to 316 | 20000 to 30000 | 4.12 to 9.23
10 | CC(C)(C)c1cc(CN(C(=O)CN(Cc2ccccc2F)S(=O)(=O)c2c(F)c(F)c(F)c(F)c2F)c2ccc(C(=O)O)cc2C2CC2)cc(C2CC2)c1 [Compound 1091, 4-(N-(3-(tert-butyl)-5-cyclopropylbenzyl)-2-(N-(2-fluorobenzyl)-(2,3,4,5,6-pentafluoro-phenyl)sulfonamido)acetamido)-3-cyclopropylbenzoic acid] | 0.01 to 316 | 1 to 10000 | 4.12 to 9.23
11 | CC(C)(C)c1cc(CN(C(=O)CN(Cc2ccccc2F)S(=O)(=O)c2c(F)c(F)c(F)c(F)c2F)c2ccc(C(=O)O)cc2C(F)(F)F)cc(C2CC2)c1 [Compound 1092, 4-(N-(3-(tert-butyl)-5-cyclopropylbenzyl)-2-(N-(2-fluorobenzyl)-(2,3,4,5,6-pentafluoro-phenyl)sulfonamido)acetamido)-3-(trifluoromethyl)benzoic acid] | 0.01 to 316 | 10000 to 20000 | 4.12 to 9.23
12 | CC(C)(C)c1cc(CN(C(=O)CN(Cc2ccccc2F)S(=O)(=O)c2c(F)c(F)c(F)c(F)c2F)c2ccc(C(=O)O)cc2OC2CCCC2)cc(C2CC2)c1 [Compound 1094, 4-(N-(3-(tert-butyl)-5-cyclopropylbenzyl)-2-(N-(2-fluorobenzyl)-(2,3,4,5,6-pentafluoro-phenyl)sulfonamido)acetamido)-3-(cyclopentyloxy)benzoic acid] | 0.01 to 316 | 20000 to 30000 | 9.23 to 1670
13 | COc1cc(C(=O)O)ccc1N(Cc1cc(C2CC2)cc(C(C)(C)C)c1)C(=O)CN(Cc1ncccc1C(F)(F)F)S(=O)(=O)c1c(F)c(F)c(F)c(F)c1F [Compound 1098, 4-(N-(3-(tert-butyl)-5-cyclopropylbenzyl)-2-(N-((3-(trifluoromethyl)pyridin-2-yl)methyl)-(2,3,4,5,6-pentafluoro-phenyl)sulfonamido)acetamido)-3-methoxybenzoic acid] | 316 to 1000 | 20000 to 30000 | 2.37 to 4.12
14 | CC(C)(C)c1cc(CN(C(=O)CN(Cc2c(F)c(F)c(F)c(F)c2F)S(=O)(=O)c2c(F)c(F)c(F)c(F)c2F)c2ccc(C(=O)O)cc2OC2CC2)cc(C2CC2)c1 [Compound 1108, 4-(N-(3-(tert-butyl)-5-cyclopropylbenzyl)-2-(N-((perfluorophenyl)methyl)-(2,3,4,5,6-pentafluorophenyl)sulfonamido)acetamido)-3-cyclopropoxybenzoic acid] | 0.01 to 316 | 1 to 10000 | 9.23 to 1670
15 | CC(C)(C)c1cc(CN(C(=O)CN(Cc2ccccc2C(F)(F)F)S(=O)(=O)c2c(F)c(F)c(F)c(F)c2F)c2ccc(C(=O)O)cc2OC2CC2)cc(C2CC2)c1 [Compound 1111, 4-(N-(3-(tert-butyl)-5-cyclopropylbenzyl)-2-(N-(2-(trifluoromethyl)benzyl)-(2,3,4,5,6-pentafluoro-phenyl)sulfonamido)acetamido)-3-cyclopropoxybenzoic acid] | 0.01 to 316 | 30000 to 100000 | 9.23 to 1670
16 | COc1cc(C(=O)O)ccc1N(Cc1cc(C2CC2)cc(C(C)(C)C)c1)C(=O)CN(Cc1cnccc1C(F)(F)F)S(=O)(=O)c1c(F)c(F)c(F)c(F)c1F [Compound 1116, 4-(N-(3-(tert-butyl)-5-cyclopropylbenzyl)-2-(N-((4-(trifluoromethyl)pyridin-3-yl)methyl)-(2,3,4,5,6-pentafluoro-phenyl)sulfonamido)acetamido)-3-methoxybenzoic acid] | 0.01 to 316 | 10000 to 20000 | 2.37 to 4.12
17 | CC(C)(C)c1cc(CN(C(=O)CN(Cc2ccc(F)cc2Cl)S(=O)(=O)c2c(F)c(F)c(F)c(F)c2F)c2ccc(C(=O)O)cc2O[C@@H]2CCOC2)cc(C2CC2)c1 [Compound 1249, (R)-4-(N-(3-(tert-butyl)-5-cyclopropylbenzyl)-2-(N-(2-chloro-4-fluorobenzyl)-(2,3,4,5,6-pentafluorophenyl)sulfon-amido)acetamido)-3-((tetrahydrofuran-3-yl)oxy)benzoic acid] | – | 10000 to 20000 | 2.37 to 4.12
18 | CC(C)COc1cc(C(=O)O)ccc1N(Cc1cc(C2CC2)cc(C2CC2)c1)C(=O)CN(Cc1ccc(F)cc1Cl)S(=O)(=O)c1c(F)c(F)c(F)c(F)c1F [Compound 1255, 4-(2-(N-(2-chloro-4-fluorobenzyl)-(2,3,4,5,6-pentafluorophenyl)sulfon-amido)-N-(3,5-dicyclopropylbenzyl)acetamido)-3-isobutoxybenzoic acid] | – | 10000 to 20000 | 9.23 to 1670
19 | O=C(O)c1ccc(N(Cc2cc(C3CC3)cc(C3CC3)c2)C(=O)CN(Cc2ccc(F)cc2Cl)S(=O)(=O)c2c(F)c(F)c(F)c(F)c2F)c(OCC2COC2)c1 [Compound 1257, 4-(2-(N-(2-chloro-4-fluorobenzyl)-(2,3,4,5,6-pentafluorophenyl)sulfon-amido)-N-(3,5-dicyclopropylbenzyl)acetamido)-3-(oxetan-3-ylmethoxy)benzoic acid] | – | 10000 to 20000 | 0.00167 to 2.37
